Drawing on patent US8623892B2, “Metalloenzyme inhibitor compounds” (Viamet Pharmaceuticals, Inc., priority 2010, dated 2014), this text covers IC50 for five compounds.

For one series, the target named is CYP17 (Rattus norvegicus (Rat), UniProt P11715). Put plainly: Inhibition of CYP17 (pooled rat testicular microsomes). In kind it is biochemical. The protocol: CYP17 activity was assayed according to the following procedure. […] The individual test compound and isozyme inhibitor solutions were then diluted 20-fold with deionized water (50:950 v/v) to concentrations of 135, 27, 4.5, 0.9, 0.15, 0.03 and 0.005 μM. […] For active controls, blank test compound diluent was added in place of test compound solution.
CYP17, sequence (P11715 whole entry): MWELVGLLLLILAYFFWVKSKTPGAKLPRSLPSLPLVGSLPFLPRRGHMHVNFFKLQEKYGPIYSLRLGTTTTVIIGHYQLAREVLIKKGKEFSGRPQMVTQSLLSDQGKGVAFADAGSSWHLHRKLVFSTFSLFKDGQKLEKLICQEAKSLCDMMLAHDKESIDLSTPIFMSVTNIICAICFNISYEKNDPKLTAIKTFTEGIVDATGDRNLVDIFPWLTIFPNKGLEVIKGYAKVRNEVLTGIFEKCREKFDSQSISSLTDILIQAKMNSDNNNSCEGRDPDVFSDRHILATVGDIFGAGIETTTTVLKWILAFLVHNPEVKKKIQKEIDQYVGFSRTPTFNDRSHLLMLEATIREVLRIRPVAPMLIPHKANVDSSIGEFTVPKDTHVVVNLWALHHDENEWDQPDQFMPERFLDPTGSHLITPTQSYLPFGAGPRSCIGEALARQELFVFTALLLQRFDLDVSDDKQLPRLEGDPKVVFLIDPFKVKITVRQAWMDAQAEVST

A further series has as its target CYP2C9 (Homo sapiens (Human), UniProt P11712). Put plainly: Inhibition of liver cytochrome P450 enzymes (pooled human liver microsomes), CYP2C9. The note with it: read-out: CYP2C9 IC50. The protocol:
(§1) Solutions of each test compound were separately prepared at concentrations of 20000, 6000, 2000, 600, 200, and 60 μM by serial dilution with DMSO:MeCN (50:50 v/v). The individual test compound solutions were then diluted 20 fold with DMSO:MeCN:deionized water (5:5:180 v/v/v) to concentrations of 1000, 300, 100, 30, 10, and 3 μM. […] The percent of organic solvent attributable to the test compound or inhibitor mixture in the final reaction mixture was 2% v/v.
(§2) Pooled human liver microsome suspension (20 mg/mL) was diluted with phosphate buffer to obtain a 5 mg/mL suspension. A solution of NADPH was prepared in phosphate buffer at a concentration of 5 mM. Separate stock solutions of each substrate were prepared in DMSO:MeCN (50:50 v/v), mixed, and diluted in phosphate buffer to obtain a single solution containing each substrate at five times its experimentally determined Km concentration. […]
(§3) Substrate solution and microsome suspension were combined in a 1:1 volume ratio, mixed, and distributed to reaction wells of a PCR plate. […] A portion of the supernatant was analyzed by gradient reverse-phase HPLC with detection by electrospray ionization triple quadrupole mass spectrometry in the positive ion mode.
(§4) Data was fitted to sigmoid dose-response curves and the inhibitory potency of each test compound was determined as its IC50 value.
(Liver microsomes are vesicles of endoplasmic reticulum, rich in cytochrome P450 enzymes.)

The target in the next series is CYP2C19 (Homo sapiens (Human), UniProt P33261). Put plainly: Inhibition of liver cytochrome P450 enzymes (pooled human liver microsomes), CYP2C19. The note with it: read-out: CYP2C19 IC50. The protocol: as §1, §2, §3, §4
CYP2C19, sequence (P33261 whole entry): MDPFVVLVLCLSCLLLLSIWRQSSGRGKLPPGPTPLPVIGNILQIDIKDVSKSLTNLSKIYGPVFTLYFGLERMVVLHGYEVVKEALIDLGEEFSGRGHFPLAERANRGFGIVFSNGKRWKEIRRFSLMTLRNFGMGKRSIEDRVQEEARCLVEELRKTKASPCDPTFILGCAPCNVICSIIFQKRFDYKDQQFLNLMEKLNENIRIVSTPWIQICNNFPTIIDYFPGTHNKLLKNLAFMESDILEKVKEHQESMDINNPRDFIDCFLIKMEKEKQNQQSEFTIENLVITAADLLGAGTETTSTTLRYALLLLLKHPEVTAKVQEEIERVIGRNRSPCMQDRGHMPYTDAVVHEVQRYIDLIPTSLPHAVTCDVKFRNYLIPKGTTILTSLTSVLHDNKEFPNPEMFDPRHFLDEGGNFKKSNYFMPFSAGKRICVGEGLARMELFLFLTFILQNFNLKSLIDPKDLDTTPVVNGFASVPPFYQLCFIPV

CYP2C9, sequence (P11712 whole entry): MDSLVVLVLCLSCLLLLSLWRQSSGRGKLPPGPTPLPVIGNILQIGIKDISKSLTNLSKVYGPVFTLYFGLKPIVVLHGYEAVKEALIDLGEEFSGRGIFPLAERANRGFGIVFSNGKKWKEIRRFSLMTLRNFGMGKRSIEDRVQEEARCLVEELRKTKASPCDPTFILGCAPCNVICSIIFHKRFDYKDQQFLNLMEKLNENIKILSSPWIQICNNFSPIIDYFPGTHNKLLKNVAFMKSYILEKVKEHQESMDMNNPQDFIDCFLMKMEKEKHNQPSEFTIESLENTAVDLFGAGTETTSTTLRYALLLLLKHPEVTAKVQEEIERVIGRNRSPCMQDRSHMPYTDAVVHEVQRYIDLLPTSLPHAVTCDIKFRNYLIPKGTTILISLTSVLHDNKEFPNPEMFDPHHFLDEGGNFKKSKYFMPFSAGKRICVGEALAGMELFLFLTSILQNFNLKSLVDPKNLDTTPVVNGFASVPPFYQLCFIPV

A word on the IC50: it is the concentration that gives 50% inhibition. The compound `COc1cc2cnc(C(O)(c3c[nH]nn3)C(C)C)cc2cc1OC` (centres unmarked) [Example 2, 1-(6,7-Dimethoxyisoquinolin-3-yl)-2-methyl-1-(1H-1,2,3-triazol-4-yl)propan-1-ol] displayed an IC50 on CYP17 of 0.96 µM.

Consider `CC(C)C(O)(c1ccc2cc(OC(F)F)c(OC(F)F)cc2c1)c1c[nH]nn1` (centres unmarked) [Example 3, 1-(6,7-Bis(difluoromethoxy)naphthalen-2-yl)-2-methyl-1-(1H-1,2,3-triazol-4-yl)propan-1-ol], for which the IC50 on CYP2C9 worked out at 12 µM; at CYP2C19, 19 µM.

For `CC(=O)N1CCN(c2ccc(OCC3COC(Cn4ccnc4)(c4ccc(Cl)cc4Cl)O3)cc2)CC1` (centres unmarked) [Ketoconazole, reference compound], half-maximal inhibition on CYP17 (IC50) was put at 0.4 µM.

In the case of `CC(C)C(O)(c1ccc2cc(-c3cnco3)ccc2c1)c1c[nH]nn1` (centres unmarked) [Example 4, 2-Methyl-1-(6-(oxazol-5-yl)naphthalen-2-yl)-1-(1H-1,2,3-triazol-4-yl)propan-1-ol], on CYP17, inhibition was half-maximal at 0.51 µM (IC50).

`COc1cc2ccc(C(O)(c3c[nH]nn3)C(C)C)cc2cc1OC` (centres unmarked) [Example 1, 1-(6,7-Dimethoxynaphthalen-2-yl)-2-methyl-1-(1H-1,2,3-triazol-4-yl)propan-1-ol]: the IC50 is 0.18 µM on CYP17, 39 µM at CYP2C9 and 33 µM on CYP2C19.
